# Results reported in US20260183297A1, “SELECTION OF PATIENTS FOR THE TREATMENT OF FADS1-MEDIATED DISEASES OR DISORDERS USING FADS-1 INHIBITORS” (AMGEN INC., priority 2022, published 2026).
# Where two headings read alike, the source gives them in different places.
# Key:
# FADS1 [1] = biological target: T1, FADS1 (Mus musculus, UniProt Q920L1); assay: In vivo FADS1 activity measurement using blood plasma (13C5-DGLA to 13C5-AA conversion); details: for Plasma Avg % Conversion / inhibition at 30 mg/kg: DIO mice, single oral dose 30 mg/kg, 24 hours after dosing
# T1 construct: Liver from ^13C5-DGLA dosed DIO mice was collected for pharmacodynamic (PD) analysis; from tissue; host or cells: living DIO C57Bl/6 mice; 13C5-DGLA to 13C5-AA conversion read in liver (A4) or blood plasma (A5)
# T1 sequence (Q920L1 1-447): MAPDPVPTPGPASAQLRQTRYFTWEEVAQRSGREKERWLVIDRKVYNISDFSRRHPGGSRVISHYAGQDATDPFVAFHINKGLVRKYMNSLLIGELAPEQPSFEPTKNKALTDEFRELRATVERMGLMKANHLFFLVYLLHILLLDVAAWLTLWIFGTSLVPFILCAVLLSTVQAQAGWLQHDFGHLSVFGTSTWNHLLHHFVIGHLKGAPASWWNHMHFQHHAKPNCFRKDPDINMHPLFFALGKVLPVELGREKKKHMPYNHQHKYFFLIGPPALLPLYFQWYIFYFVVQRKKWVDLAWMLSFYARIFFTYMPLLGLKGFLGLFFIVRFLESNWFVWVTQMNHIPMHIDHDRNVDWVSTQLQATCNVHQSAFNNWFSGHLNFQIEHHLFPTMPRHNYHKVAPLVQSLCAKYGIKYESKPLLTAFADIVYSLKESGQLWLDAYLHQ
# Experimental: FADS1 activity in the presence of Compounds B-E was also measured using blood plasma (in addition to using the liver). The above procedures were perforned to measure the in vivo activity of FADS1 using the liver. The following general procedures were used to measure FADS1 activity using blood plasma. Diet-induced obese (DIO) mice that were on 12 weeks of high fat diet were used to determine the pharmacokinetic (PK) and pharmacodynamic (PD) properties of test compounds. To determine the target coverage at 24 hours after dosing with a test compound (e.g., Compounds B-E, shown below), mice were IP dosed with 0.1 ml solution of ^13C5-DGLA (2 mM in 18.42 mM Na2CO3 buffer). Necropsy were performed at 30 minutes post ^13C5-DGLA dosing. EDTA Plasma was collected for PK and PD analysis.
# For PD analysis, 50 μl of plasma or standards (pooled untreated mouse plasma with ^13C5-DGLA and ^13C5-AA added at concentration of 4.57 nM to 10 uM) were mixed with 10 μl of 90% methanol and 10 μl of 50 μg/mL of ALA-D14 as an internal standard (100 μM alpha-linolenic acid-d14 (ALA-d14, Cayman Chemical)) in a 96 well plate. 490 μl of chloroform:methanol (2:1) were added to each well. Plates were plated on a shaker for 5 min prior to adding 66.5 μl water. The plates were shaken for another 5 minutes, followed by centrifugation at 2000 RPM for 5 minutes. The bottom organic layer was transferred to a clean 96 well plate. 333 ul of chloroform:methanol (2:1) were added to the to the remaining liquid phase in the original plate. After 5 min of shaking, the plate was centrifuged at 2000 RPM for 5 minutes. The bottom layer was collected and combined with the first bottom layer. The combined layers were evaporated to dryness under a constant stream of nitrogen gas. After the plate has been dried, 100 μl of 2N NaOH was added to the mixture for subsequent saponification at 65° C. for 1 hour. The samples were then cooled to room temperature and the mixture was then acidified with 50 μl of formic acid followed by two consecutive chloroform:methanol (2:1) extractions. 500 μl of Chloroform:methanol (2:1) was added and the mixture thoroughly mixed by shaking. The plate was then centrifuged at 2,000 rpm for 5 min. The bottom chloroform phase was transferred to a new 2 mL 96 well plate and the remaining aqueous layer was extracted with another 250 μl of chloroform:methanol (2:1). The organic extracts were combined, and the solvent was evaporated to dryness by placing the plate under nitrogen. Extracts were then dissolved in 200 μl of acetonitrile/methanol (1:1). The plate was placed on a shaker for 30 minutes to ensure thorough mixing and dissolution of the extracted fatty acids. The plate was then centrifuged at 2000 RPM for 5 minutes. 80 μl of the samples were transferred to a new 96 well polypropylene plate for analysis on a LC-MS/MS for the following analytes: ^13C5-DGLA, ^13C5-AA, with ALA-d14 as the internal standard. Briefly describing the LC-MS/MS method: 20 μl of sample was injected onto a Poroshell 120 EC-C18 3.0×50 mm, 1.9 μm id column. Mobile phases were 80% acetonitrile containing 5 mM ammonium acetate for mobile phase A and 99.5% acetonitrile containing 5 mM ammonium acetate for mobile phase B. The LC gradient was a 3 min long method at a flow rate of 0.4 mL/minute consisting of 45% B at 0 to 0.5 min, followed by a 45% B to 100% B from 0.5 to 2.0 min; the system was then maintained at 100% B from 2.0 min to 2.5 min and returned to 45% B at 2.6 min and maintained until end of the method. The analyte peak areas were quantified by using the SCIEX Analyst software. To determine the degree of FADS1 inhibition, the in vivo FADS1 activity, POC, percent of inhibition, and in vivo IC50 values are calculated as described above for liver FADS1 activity measurement.
# FADS1 [2] = biological target: T1, FADS1; assay: In vivo FADS1 activity measurement using the liver (13C5-DGLA to 13C5-AA conversion); details: DIO mice, single oral dose 30 mg/kg, 24 hours after dosing; for inhibition at 30 mg/kg: mouse, read-out: Liver Avg % Inhibition
# Experimental: Mice were then dosed by intraperitoneal injection with a solution comprising of a mixture of 0.1 ml solution of ^13C5-DGLA (2 mM in 18.42 mM Na2CO3 buffer). Necropsy were performed at 30 minutes post ^13C5-DGLA dosing. Liver from ^13C5-DGLA dosed DIO mice was collected for pharmacodynamic (PD) analysis and EDTA plasma was collected for compound exposure determination. For PD analysis, 150 mg of frozen liver tissue were premixed with ALA-D14 as an internal standard. Liver samples were homogenized and extracted twice with chloroform/methanol (2:1) solution. The organic phases for the two extractions were pooled and evaporated to dryness under nitrogen gas. The liver extract was resuspended in 200 μl 2N NaOH and saponified at 65° C. for 1 hour. After cooling to room temperature, 100 μl of formic acid was added and the mixture was subjected to two consecutive extractions with a chloroform:methanol (2:1) solution. The pooled organic phases were evaporated to dryness under nitrogen gas and resuspended in a solution containing acetonitrile and methanol at a ratio of 1:1. The extracts were then analyzed by LC/MS/MS for the following analytes: ^13C5-DGLA, ^13C5-AA, with ALA-d14 as the internal standard. The sample (20 μl) was injected onto a Poroshell 120 EC-C18 3.0×50 mm, 1.9 μm id column (Agilent, Santa Clara, CA). The analyte peak areas were quantified using the Analyst software (SCIEX, Framingham, […]). The residual in vivo FADS1 activity was calculated by taking the percent of substrate to product conversion normalized to the vehicle group to determine the percent of control (POC) and the percent inhibition relative to control (vehicle).
# To determine the degree of FADS1 inhibition, the in vivo FADS1 activity as the percent of conversion calculated using the following equation: […]
# The data were then normalized to the vehicle group to determine the percent of inhibition relative to control (vehicle) by the following equation: […]
# To calculate the in vivo potency, dose response graphs were generated by plotting the plasma concentration of the test compound determined from the PK analysis on the abscissa, against the percent of control (POC, relative to vehicle) of the FADS1 activity for each mouse. The data points were then fitted by using the log(inhibitor) vs response nonlinear regression algorithm using GraphPad Prism (version 8.4.3, San Diego CA) to calculate the in vivo IC50 (total).
# Free (unbound) IC50 and IC90 values were calculated by first calculating the unbound compound concentration in the plasma by multiplying the plasma concentration of test compound with the fraction unbound (fu) value in mouse plasma determined in the plasma protein binding study. A dose response curve was used to determine the unbound IC50 and IC90 by plotting the unbound plasma concentration of the compound on the abscissa, against the percent of control (POC, relative to vehicle) of FADS1 activity for each mouse. The data points were then fitted with a log (inhibitor) versus response nonlinear regression algorithm using GraphPad Prism (version 8.4.3, San Diego, CA) to calculate the in vivo IC50 (Free).
# [3] = HFD-fed DIO C57BL/6J mice; cited from earlier work
# [4] = C57BL/6 DIO mice; cited from earlier work
SMILES,Plasma Avg % Conversion (FADS1 [1]) [%],inhibition at 30 mg/kg (FADS1 [1]; mouse) [%],Liver Avg % Conversion (FADS1 [2]) [%],inhibition at 30 mg/kg (FADS1 [2]) [%],also measured
O=c1c(-c2ccc(OCC(F)(F)F)cc2)c(C(F)(F)F)nc2cc(CO)ccn12 [Compound D],25.1,58.3,34.5,58.7,–
COc1ccn2c(=O)c(-c3ccc(O[C@H](C)C#N)cc3)c(C(F)(F)F)nc2n1 [Compound E],58.1,3.7,78.7,5.8,–
O=c1c(-c2cnn(CC(F)(F)C(F)(F)F)c2)c(C(F)(F)F)nc2cc(OCF)ccn12 [Compound F],–,–,–,–,"Free (unbound) in vivo IC95 (FADS1 [1]; blood plasma, unbound plasma concentration): 16.4 nM; IC50 (FADS1 [1]; blood plasma, unbound plasma concentration, read-out: Free (unbound) in vivo IC50): 5.62 nM; IC90 (FADS1 [1]; mouse, blood plasma, unbound plasma concentration, read-out: Free (unbound) in vivo IC90): 12.4 nM"
COc1ccc2c(c1)c(CC(=O)O)c(C)n2C(=O)c1ccc(Cl)cc1 [indomethacin],–,–,–,–,body weight [3]: reduce body weight; insulin sensitivity [3]: improve insulin sensitivity
Cc1c(C(=O)NN2CCCCC2)nn(-c2ccc(Cl)cc2Cl)c1-c1ccc(Cl)cc1 [rimonabant],–,–,–,–,adipose tissue inflammation [4]: reduced adipose tissue inflammation; body weight [4]: reduce body weight; physical activity [4]: increased physical activity only in the light cycle
